Key:
[1] = biological target: GSK3α (Homo sapiens, UniProt P49840); experiment: GSK3α kinase assay (Caliper LabChip3000 mobility shift, fluoresceinated peptide substrate)
Protocol: The kinase assay was performed in V-bottom 384-well plates. […] The reaction was incubated at room temperature for 20 hours and terminated by adding 45 μl of 35 mM EDTA to each sample. The reaction mixture was analyzed on the Caliper LabChip3000 (Caliper, Hopkinton, Mass.) by electrophoretic separation of the unphosphorylated substrate and phosphorylated product. […] Compounds were dissolved at 10 mM in dimethylsulfoxide (DMSO) and evaluated at eleven concentrations. IC50 values were derived by non-linear regression analysis.

[2] = biological target: GSK3β (Homo sapiens, UniProt P49841); experiment: GSK3β kinase assay (Caliper LabChip3000 mobility shift, fluoresceinated peptide substrate); type: biochemical; details: 250 pM enzyme, 20 uM ATP, 1.5 uM peptide, 20 hours room temperature; first value of cell GSK3β/GSK3α; read-out: GSK3β (nM), IC50
[3] = test system: pTau; experiment: pTau assay (no method described); type: cell-based

GSK3α, sequence (P49840 whole entry, species assumed): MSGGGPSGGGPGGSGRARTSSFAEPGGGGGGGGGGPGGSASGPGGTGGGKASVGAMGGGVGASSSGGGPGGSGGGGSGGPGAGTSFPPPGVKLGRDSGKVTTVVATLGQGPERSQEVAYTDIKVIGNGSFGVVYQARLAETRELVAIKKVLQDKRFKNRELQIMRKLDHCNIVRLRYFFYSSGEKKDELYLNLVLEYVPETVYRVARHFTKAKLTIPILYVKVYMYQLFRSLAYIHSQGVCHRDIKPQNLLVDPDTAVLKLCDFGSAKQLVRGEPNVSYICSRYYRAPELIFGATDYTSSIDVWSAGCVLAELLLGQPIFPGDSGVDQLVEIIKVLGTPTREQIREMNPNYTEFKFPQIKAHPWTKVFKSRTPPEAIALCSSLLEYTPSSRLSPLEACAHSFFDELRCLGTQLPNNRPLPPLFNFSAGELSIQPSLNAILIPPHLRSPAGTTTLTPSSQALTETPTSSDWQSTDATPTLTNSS
GSK3β, sequence (P49841 whole entry, species assumed): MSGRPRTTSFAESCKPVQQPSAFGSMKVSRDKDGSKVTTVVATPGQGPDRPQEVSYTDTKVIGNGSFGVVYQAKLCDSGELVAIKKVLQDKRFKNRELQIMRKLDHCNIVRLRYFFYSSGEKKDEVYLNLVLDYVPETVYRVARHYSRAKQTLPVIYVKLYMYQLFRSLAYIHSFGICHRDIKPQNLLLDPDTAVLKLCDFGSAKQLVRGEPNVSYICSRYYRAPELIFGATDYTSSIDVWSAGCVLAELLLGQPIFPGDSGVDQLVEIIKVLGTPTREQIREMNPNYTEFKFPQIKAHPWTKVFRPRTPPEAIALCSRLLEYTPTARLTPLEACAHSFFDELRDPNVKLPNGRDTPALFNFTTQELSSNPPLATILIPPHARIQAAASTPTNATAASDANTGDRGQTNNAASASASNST

SMILES	IC50 [1] [nM]	IC50 [2] [nM]	IC50 [3] [nM]
O=C(Nc1cnccc1-c1ccc(F)cc1)c1ccnc(NC2CC2)n1 [Example 153, 2-(Cyclopropylamino)-N-(4-(4-fluorophenyl)pyridin-3-yl)pyrimidine-4-carboxamide]	0.65	0.82	55
O=C(Nc1cnccc1OCC(F)(F)F)c1ccnc(NC2CC2)n1 [Example 130, 2-(Cyclopropylamino)-N-(4-(2,2,2-trifluoroethoxy)pyridin-3-yl)pyrimidine-4-carboxamide]	1.5	1.6	46
O=C(Nc1cnccc1-c1ccccc1)c1ccnc(Nc2cccnc2)n1 [Example 34, N-(4-Phenylpyridin-3-yl)-2-(pyridin-3-ylamino)pyrimidine-4-carboxamide]	0.69	1.2	46
O=C(Nc1cnc(F)cc1OCC(F)(F)F)c1ccnc(Nc2ccc(Cl)cc2)n1 [Example 110, 2-((4-Chlorophenyl)amino)-N-(6-fluoro-4-(2,2,2-trifluoroethoxy)pyridin-3-yl)pyrimidine-4-carboxamide]	0.68	1.1	65

Source: patent US10752609B2, “GSK-3 inhibitors” (priority 2016, dated 2020)
